# Counter-ions that a name gives are not always drawn. Like-named read-outs stand apart in the source and are kept apart here.
# Key:
# murine TRPM7 = murine TRPM7 (Mus musculus, UniProt Q923J1); test: TRPM7-mediated cell death screen, Tet-induced Flag-murine TRPM7 HEK293 Trex cells in Mg2+-deficient HBSS, PI fluorescence
# Method: In the present example, human embryonic kidney (HEK293 Trex) cells were stably transfected with a tetracycline inducible Flag-tagged TRPM7 construct.
# This cell death can be measured, and the impact of a candidate TRPM7 modulator on this cell death can be measured. […] Cell death can also be measured by fluorescent measurements of propidium iodide and dihydrorhodamine.
# Tet-inducible Flag-murine TRPM7/pcDNA4-TO HEK293 Trex cells are cultured in: MEM (Invitrogen) supplemented with 10% fetal bovine serum, 20 mM GlutaMAX-1, 100 units/ml penicillin G sodium, 100 units/ml streptomycin sulfate, 0.25 ug/ml amphotericin B, 5 ug/ml blasticidin, 0.4 mg/ml zeocin. (All reagent were obtained from Invitrogen)
# Stably transfected Flag-murine TRPM7/pcDNA4-TO HEK293 Trex cells are thawed from frozen stock kept in liquid nitrogen, and cultured in culture medium for 5 days in 100 mm dishes (Costa). […] Cells used in the present experiments are kept to three passages or less. The cells are maintained at 37° C. with 5% CO2 in a humidified incubator. All culture plates and multi-well plates (Costa) are coated with poly-D-lysine. The coating with poly-D-lysine is performed using 0.1 mg/ml poly-D-lysine (P1045 Sigma) for 12 h at 37C, followed by four washes with sterilized D-PBS (Invitrogen) without MgCl2 and CaCl2.).
# When 384 well plates are used, Cells are seeded at 1.3−1.5×10^4 cells/well. When 96 well plates are used, cells are seeded at 4−5×10^4 Cells/well. After 24 h TRPM7 expression is induced by adding tetracycline (Tet; 1 ug/ml) (Invitrogen) for 24 h, followed by wash with Mg deficient HBSS.
# The test compounds were plated in 96 or 384 well formats, and initially used at a concentration of: 4 μM for compounds of the LOPAC library and 5 μM for each of the Prestwick and Maybridge libraries.
# Cell death in the presence or absence of a test compound and/or under conditions of TRPM7 activation was determined by fluorescence measurements of PI (5-50 μg/ml).
# In brief, B scores are a relative potency score based on the raw sample PI fluorescence value. They are the ratio of an adjusted raw PI fluorescence value in the numerator to a measure of variability in the denominator.
# In another approach, used manually to validate the results of the HTS method, a multiwell plate fluorescence scanner (Fluorskan Ascent; Thermo Scientific) was used. The fraction of dead cells in each culture was calculated as: fraction DEAD=(Ft−Fo)/Fmax Where Ft=PI fluorescence of the sample at time t, Fo=initial PI fluorescence and Fmax=background subtracted PI fluorescence the same cultures after exposure to 100 μM triton-X. An alternative to this formula is a Control-based formula wherein the fraction dead=[Ft−F(−)t]/[F(+)t−F(−)t] where Ft=PI fluorescence of the sample at time t, F(−)t is the PI fluorescence of the negative control sample at time t, F(+)t is the PI fluorescence of the positive control sample at time t.
# Screening was carried out in Tet-induced Flag-murine TRPM7/pcDNA4-TO HEK293 Trex cells.
# TRPM7 = TRPM7 (Homo sapiens, UniProt Q96QT4); settings: Nadler et al., Jiang et al.; read-out: IC50 for inhibition of TRPM7; cited from earlier work
# H9c2 cells = test: OGD-induced cell death in H9c2 cardiomyocytes, PI uptake; assay type: cell-based, rat; settings: 6 hr anoxia + 2 hr recovery, gadolinium in buffer
# Method: The rat cardiomyoblast cell line H9c2 was obtained from the American Type Culture Collection (CRL-1446) and cultured in Dulbecco's Modified Eagle Medium supplemented with 10% (v/v) heat-inactivated fetal bovine serum and 1% antibiotic-antimycotic. Cells were grown in an atmosphere of […]/5% CO2 in a humidified incubator.
# H9c2 cells were made anoxic by replacing the medium with de-oxygenated Ischemic buffer (in mM: 1.13 CaCl2, 5 KCl, 0.3 KH2PO4, 0.5 MgCl2, 0.4 MgSO4, 128 NaCl, 10 HEPES) and by transferring them to an anaerobic chamber (5% CO2, 10% H2, 85% N2) for 6 hrs or 16 hrs at 37° C. OGD was terminated by washing the cells with oxygenated glucose-containing Control buffer (in mM: 1.13 CaCl2, 5 KCl, 0.3 KH2PO4, 0.5 MgCl2, 0.4 MgSO4, 128 NaCl, 10 HEPES 10 Glucose). Cultures were maintained for another 2 hrs at 37° C. in a humidified 5% CO2 atmosphere. Normoxic cells were maintained in Control buffer for the duration of the experiment.
# Cell death was determined by fluorescence measurements of PI (5 μg/ml) using a multiwell plate fluorescence scanner. The fraction of dead cells in each culture was calculated as: fraction dead=(Ft−F0)/Fmax where Ft=PI fluorescence at 2 hrs post-OGD, F0=initial PI fluorescence immediately after the OGD treatment, and Fmax=PI fluorescence of the same cultures following 20 mins incubation in 1% TritonX-100.
# H9c2 cells were cultured and subjected to OGD as described supra. FIG. 71 panels A and B show the results of exposure to M21 or M5 for 24 hours following 6 hours of OGD. FIG. 71 panels C and D show the results of H9c2cells were treated with either 1 mM Mg^2+, 5 μM M6, M11 (acute treatment) during the anoxic and recovery periods, or 1 μM nifedipine. Results are presented as mean±SEM (n=4).
# [1] = LOPAC (4 μM) and Prestwick (5 μM) hits
# [2] = Prestwick library, 39 nM to 20 μM
# [3] = Prestwick library, initial concentration 5 μM, HTS PI fluorescence
# [4] = Prestwick library, manual replication
# [5] = LOPAC library, initial concentration 4 μM, HTS PI fluorescence
# [6] = LOPAC library, manual replication
# murine TRPM7, sequence (Q923J1 whole entry): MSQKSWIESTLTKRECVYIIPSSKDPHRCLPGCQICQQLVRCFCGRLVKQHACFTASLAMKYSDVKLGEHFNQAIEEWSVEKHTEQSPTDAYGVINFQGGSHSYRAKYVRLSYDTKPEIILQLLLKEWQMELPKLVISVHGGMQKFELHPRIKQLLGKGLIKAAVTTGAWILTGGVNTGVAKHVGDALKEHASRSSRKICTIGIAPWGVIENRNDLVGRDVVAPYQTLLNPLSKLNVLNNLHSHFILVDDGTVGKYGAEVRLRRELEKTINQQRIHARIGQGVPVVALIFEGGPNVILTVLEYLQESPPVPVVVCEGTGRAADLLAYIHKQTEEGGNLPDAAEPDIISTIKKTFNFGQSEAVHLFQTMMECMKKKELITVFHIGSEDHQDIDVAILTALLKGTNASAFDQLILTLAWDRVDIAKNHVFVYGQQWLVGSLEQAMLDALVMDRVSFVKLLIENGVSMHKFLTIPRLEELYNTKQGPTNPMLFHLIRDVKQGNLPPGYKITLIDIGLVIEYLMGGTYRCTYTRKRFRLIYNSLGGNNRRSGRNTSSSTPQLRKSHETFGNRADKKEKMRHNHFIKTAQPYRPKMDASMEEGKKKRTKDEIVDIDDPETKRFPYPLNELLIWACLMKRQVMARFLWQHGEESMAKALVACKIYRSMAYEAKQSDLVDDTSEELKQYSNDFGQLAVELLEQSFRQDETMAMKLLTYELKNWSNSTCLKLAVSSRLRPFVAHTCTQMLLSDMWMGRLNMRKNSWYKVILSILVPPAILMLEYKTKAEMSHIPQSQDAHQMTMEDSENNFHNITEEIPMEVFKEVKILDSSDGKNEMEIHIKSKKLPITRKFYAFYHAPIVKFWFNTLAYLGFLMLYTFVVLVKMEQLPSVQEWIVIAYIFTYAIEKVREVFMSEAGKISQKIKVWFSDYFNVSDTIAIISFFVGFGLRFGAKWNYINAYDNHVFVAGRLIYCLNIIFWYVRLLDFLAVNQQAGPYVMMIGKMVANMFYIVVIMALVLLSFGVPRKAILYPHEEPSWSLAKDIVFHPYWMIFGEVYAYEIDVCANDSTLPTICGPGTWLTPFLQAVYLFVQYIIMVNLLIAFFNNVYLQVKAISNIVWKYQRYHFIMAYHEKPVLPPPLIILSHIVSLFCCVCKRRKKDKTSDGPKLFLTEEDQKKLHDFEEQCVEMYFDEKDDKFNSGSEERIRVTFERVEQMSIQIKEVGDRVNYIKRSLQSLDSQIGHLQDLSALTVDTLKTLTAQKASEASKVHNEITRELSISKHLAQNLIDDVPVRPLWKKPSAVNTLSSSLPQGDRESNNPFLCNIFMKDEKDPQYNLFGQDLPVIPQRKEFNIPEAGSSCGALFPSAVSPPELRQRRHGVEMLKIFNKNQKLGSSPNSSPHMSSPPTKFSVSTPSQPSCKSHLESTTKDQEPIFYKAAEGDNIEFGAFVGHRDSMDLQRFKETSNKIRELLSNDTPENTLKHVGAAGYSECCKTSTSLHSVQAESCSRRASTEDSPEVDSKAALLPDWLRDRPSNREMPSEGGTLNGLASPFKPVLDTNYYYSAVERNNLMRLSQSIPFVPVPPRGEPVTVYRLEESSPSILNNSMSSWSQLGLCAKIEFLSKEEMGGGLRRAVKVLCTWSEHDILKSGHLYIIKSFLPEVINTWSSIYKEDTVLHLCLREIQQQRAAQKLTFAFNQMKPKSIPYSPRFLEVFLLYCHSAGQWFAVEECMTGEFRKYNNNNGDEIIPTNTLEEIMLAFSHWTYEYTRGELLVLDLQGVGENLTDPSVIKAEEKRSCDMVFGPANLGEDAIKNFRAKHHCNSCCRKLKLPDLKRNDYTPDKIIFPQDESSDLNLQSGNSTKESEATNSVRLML
# TRPM7, sequence (Q96QT4 whole entry): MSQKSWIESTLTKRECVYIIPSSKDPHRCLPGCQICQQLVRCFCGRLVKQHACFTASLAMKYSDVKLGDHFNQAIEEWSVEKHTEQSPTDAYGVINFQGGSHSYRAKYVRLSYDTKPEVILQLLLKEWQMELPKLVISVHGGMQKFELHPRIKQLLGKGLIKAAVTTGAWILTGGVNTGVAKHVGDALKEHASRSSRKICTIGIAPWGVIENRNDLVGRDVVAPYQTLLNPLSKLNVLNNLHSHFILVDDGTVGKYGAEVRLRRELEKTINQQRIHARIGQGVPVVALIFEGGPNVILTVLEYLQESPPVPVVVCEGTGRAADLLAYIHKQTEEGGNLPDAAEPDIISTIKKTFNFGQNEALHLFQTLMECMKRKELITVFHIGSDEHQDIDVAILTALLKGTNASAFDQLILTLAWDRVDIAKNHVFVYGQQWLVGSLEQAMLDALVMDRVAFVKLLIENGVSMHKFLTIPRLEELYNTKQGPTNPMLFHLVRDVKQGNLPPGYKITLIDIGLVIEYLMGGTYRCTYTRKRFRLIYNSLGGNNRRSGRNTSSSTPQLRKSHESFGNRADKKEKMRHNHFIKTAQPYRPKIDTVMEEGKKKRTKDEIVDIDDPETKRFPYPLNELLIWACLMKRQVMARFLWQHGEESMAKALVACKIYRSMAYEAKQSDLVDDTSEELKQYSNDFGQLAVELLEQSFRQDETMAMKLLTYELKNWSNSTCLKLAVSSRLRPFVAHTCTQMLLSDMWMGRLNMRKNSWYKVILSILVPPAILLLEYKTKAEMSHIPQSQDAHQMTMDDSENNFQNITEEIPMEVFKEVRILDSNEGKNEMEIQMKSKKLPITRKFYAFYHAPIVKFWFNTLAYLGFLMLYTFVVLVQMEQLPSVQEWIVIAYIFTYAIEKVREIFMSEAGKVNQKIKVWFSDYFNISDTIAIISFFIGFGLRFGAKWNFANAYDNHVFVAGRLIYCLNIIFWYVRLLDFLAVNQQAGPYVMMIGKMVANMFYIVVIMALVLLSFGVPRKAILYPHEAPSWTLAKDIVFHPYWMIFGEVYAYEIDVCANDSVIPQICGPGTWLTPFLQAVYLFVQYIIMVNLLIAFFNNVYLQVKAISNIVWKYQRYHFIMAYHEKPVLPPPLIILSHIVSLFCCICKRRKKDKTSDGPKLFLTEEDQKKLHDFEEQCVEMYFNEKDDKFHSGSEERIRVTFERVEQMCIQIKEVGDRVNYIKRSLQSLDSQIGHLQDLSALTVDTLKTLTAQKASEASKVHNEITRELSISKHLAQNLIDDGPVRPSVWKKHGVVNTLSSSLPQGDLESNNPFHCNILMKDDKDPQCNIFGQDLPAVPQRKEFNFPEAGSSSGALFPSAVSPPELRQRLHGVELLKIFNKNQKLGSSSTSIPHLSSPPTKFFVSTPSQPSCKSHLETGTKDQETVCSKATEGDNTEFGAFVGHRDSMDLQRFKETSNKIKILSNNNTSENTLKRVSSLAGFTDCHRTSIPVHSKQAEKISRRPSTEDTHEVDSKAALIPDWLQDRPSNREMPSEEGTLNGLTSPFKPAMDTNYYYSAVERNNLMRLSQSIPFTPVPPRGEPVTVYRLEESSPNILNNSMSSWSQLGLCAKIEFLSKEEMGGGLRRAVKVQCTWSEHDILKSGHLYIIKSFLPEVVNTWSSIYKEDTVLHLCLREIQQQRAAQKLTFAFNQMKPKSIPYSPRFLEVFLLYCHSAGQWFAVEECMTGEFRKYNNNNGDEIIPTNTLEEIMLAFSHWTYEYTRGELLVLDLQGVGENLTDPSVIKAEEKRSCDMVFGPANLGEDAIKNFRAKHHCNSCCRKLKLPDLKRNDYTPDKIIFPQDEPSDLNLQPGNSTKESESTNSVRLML
SMILES,found to inhibit TRPM7-mediated cell injury (murine TRPM7; [1]),Dose-Response (murine TRPM7; [2]),B Score (murine TRPM7; [3]),Verification Ratio (murine TRPM7; [4]),"Dose-Response (murine TRPM7; LOPAC library, 39 nM to 20 μM)",B Score (murine TRPM7; [5]),Verification Ratio (murine TRPM7; [6]),other results
COc1ccc(C[C@H]2NC[C@H](O)[C@H]2OC(C)=O)cc1 [Anisomycin],inhibit TRPM7-mediated cell injury,Yes,−6.683,0.4265,,,,
COc1cccc(OC)c1OCCNCC1CSc2ccccc2O1 (centres unmarked) [Benoxathian hydrochloride],inhibit TRPM7-mediated cell injury,,,,Yes,−10.32,0.359,
CCn1cnc2c(Nc3cccc(Cl)c3)nc(N[C@@H]3CCCC[C@@H]3N)nc21.Cl [CGP-74514A hydrochloride],inhibit TRPM7-mediated cell injury,,,,Yes,−7.96,0.6543,
C[C@@]12C(=O)OC(=O)[C@]1(C)[C@H]1CC[C@@H]2O1 [Cantharidin],inhibit TRPM7-mediated cell injury,,−9.671,0.3746,,−10.178,0.7724,
CC[C@H]1CN2CCc3cc(OC)c(OC)cc3[C@@H]2C[C@@H]1C[C@H]1NCCc2cc(O)c(OC)cc21.Cl.Cl.O.O.O.O.O.O.O [Cephaeline dihydrochloride heptahydrate],inhibit TRPM7-mediated cell injury,,−7.927,0.2271,,,,
O=C(O)c1cc(O)cc(C(=O)O)n1 [Chelidamic acid],inhibit TRPM7-mediated cell injury,,,,Yes,−12.502,1.287,
Cc1cc(C2CCCCC2)n(O)c(=O)c1.NCCO [Ciclopirox ethanolamine],inhibit TRPM7-mediated cell injury,Yes,−5.075,0.4227,,,,
COc1cc2c(c(OC)c1OC)-c1ccc(OC)c(=O)cc1[C@@H](NC(C)=O)CC2 [Colchicine],,,,,,,,B Score (murine TRPM7): −7.343; Verification Ratio (murine TRPM7): 0.6723; found to inhibit TRPM7-mediated cell injury (murine TRPM7): inhibit TRPM7-mediated cell injury
COc1cccc2c1C(=O)c1c(O)c3c(c(O)c1C2=O)C[C@@](O)(C(C)=O)C[C@@H]3O[C@H]1C[C@H](N)[C@H](O)[C@H](C)O1 [Daunorubicin hydrochloride],inhibit TRPM7-mediated cell injury,Yes,−5.68,0.4598,,,,
C[C@H]1O[C@@H](O[C@H]2[C@@H](O)C[C@H](O[C@H]3[C@@H](O)C[C@H](O[C@H]4CC[C@@]5(C)[C@H](CC[C@@H]6[C@@H]5C[C@@H](O)[C@]5(C)[C@@H](C7=CC(=O)OC7)CC[C@]65O)C4)O[C@@H]3C)O[C@@H]2C)C[C@H](O)[C@@H]1O [Digoxin],,,,,,,,B Score (murine TRPM7): −5.938; Dose-Response (murine TRPM7): Yes; Verification Ratio (murine TRPM7): 0.7248; found to inhibit TRPM7-mediated cell injury (murine TRPM7): inhibit TRPM7-mediated cell injury
COc1cccc2c1C(=O)c1c(O)c3c(c(O)c1C2=O)C[C@@](O)(C(=O)CO)C[C@@H]3O[C@H]1C[C@H](N)[C@H](O)[C@H](C)O1 [Doxorubicin hydrochloride],inhibit TRPM7-mediated cell injury,Yes,−9.315,0.4588,,,,
CCOc1ccc(Cc2nccc3cc(OCC)c(OCC)cc23)cc1OCC [Ethaverine hydrochloride],inhibit TRPM7-mediated cell injury,Yes,−9.238,0.08142,,,,
"Ic1ccccc1CNC1C2CCN(CC2)C1C(c1ccccc1)c1ccccc1.O=C(O)C(=O)O [L-703,606 oxalate]",inhibit TRPM7-mediated cell injury,,,,Yes,−8.636,0.373,
CC[C@@H](C(=O)[C@@H](C)[C@@H](O)[C@H](C)CCc1ccc(C)c(O)c1C(=O)O)[C@H]1O[C@](CC)([C@H]2CC[C@](O)(CC)[C@H](C)O2)C[C@@H]1C [Lasalocid sodium salt],inhibit TRPM7-mediated cell injury,,−5.54,0.6891,,,,
[Mg+2] [Mg^2+],,,,,,,,IC50 (TRPM7): ~600 µM
O=C1c2c(O)ccc(O)c2C(=O)c2c(NCCNCCO)ccc(NCCNCCO)c21 [Mitoxantrone],inhibit TRPM7-mediated cell injury,,,,Yes,−7.587,0.25,
COc1ccccc1N1CCN(CC(O)COc2cccc3ccccc23)CC1 (centres unmarked) [Naftopidil dihydrochloride],inhibit TRPM7-mediated cell injury,,−8.736,0.1346,Yes,−7.535,0.2231,
COC(=O)C1=C(C)NC(C)=C(C(=O)OCCN(C)Cc2ccccc2)C1c1cccc([N+](=O)[O-])c1 (centres unmarked) [Nicardipine hydrochloride],inhibit TRPM7-mediated cell injury,Yes,−7.543,0.6651,,,,
COc1cc(/C=C/C(=O)N2CCC=CC2=O)cc(OC)c1OC [Piperlongumine],inhibit TRPM7-mediated cell injury,Yes,−9.599,0.7354,,,,
COc1ccc(C[C@H](N)C(=O)N[C@H]2[C@@H](O)[C@H](n3cnc4c(N(C)C)ncnc43)O[C@@H]2CO)cc1 [Puromycin dihydrochloride],inhibit TRPM7-mediated cell injury,Yes,−5.573,0.5905,,,,
CCN(CC)CCCC(C)Nc1c2ccc(Cl)cc2nc2ccc(OC)cc12 (centres unmarked) [Quinacrine dihydrochloride],inhibit TRPM7-mediated cell injury,,,,Yes,−5.516,0.8254,
C[n+]1cc2c3c(ccc2c2ccc4cc5c(cc4c21)OCO5)OCO3 [Sanguinarine chloride],inhibit TRPM7-mediated cell injury,,,,,−6.158,0.8029,
COc1cc2c(cc1OC)-c1c/c(=N\c3c(C)cc(C)cc3C)n(C)c(=O)n1CC2 [Trequinsin hydrochloride],inhibit TRPM7-mediated cell injury,,,,Yes,−8.81,0.2534,
"[Gd] [gadolinium, reference compound]",,,,,,,,OGD-mediated cell death (H9c2 cells): reduced

# Reference: patent US8680137B2, “Agents and methods for treating ischemic and other diseases” (Nono Inc., priority 2009, dated 2014)
